Measurements taken from patent US5801222A, “Isolation and structure of the human cancer cell growth inhibitory cyclic octapeptides phakellistatin 10 and 11” (Arizona Board of Regents acting on behalf of Arizona State …, priority 1994, dated 1998).
Residues, ends and D or L forms follow the SMILES beside them.

How the values were obtained:
ovarian cancer cell line = test: NCI in vitro screen, ovarian cancer cell line; type: cell-based, human; settings: one ovarian cancer cell line
Experimental: (§1) Total Growth Inhibition ("TGI") is the drug dose needed to yield zero percent growth, i.e., just as many cells at the end of the experiment as were present in the beginning. Whether just as many cells were killed as were produced (steady state), or no growth occurred (total inhibition), cannot be distinguished.
(§2) Each drug is tested at five (5) doses: 100-10-1-0.1-0.01 μg/ml. Percent Growths are calculated for each dose. The two (or three) doses with growth values above, below, (or near to) 50% growth are used to calculate the ED50 /GI50 using a linear regression formula. The log of the dose is used during the regression computation. If no dose yields a growth value under 50%, the results are expressed as: ED50 >(highest dose). If no dose yields growth higher than 50% growth, then ED50 <(lowest dose). […]
(§3) At the start of an experiment, cells from the in vitro cell cultures are inoculated into the appropriate tubes or microtiter plates. One set of control tubes/plates is immediately counted to determine the number of cells at the start of the experiment. This is the "baseline count", or "Tzero reading". At the end of the experiment (48 hours later) a second set of control tubes/plates is analyzed to determine the "Control Growth" value. The growth (or death) of cells relative to the initial quantity of cells is used to define the "Percent of Growth". […]

[1] = tested on: NCI's 60-cell line human tumor panel; test: NCI 60-cell line human tumor in vitro screen; type: cell-based; settings: 60-cell line panel; 10^-5 M high test concentration, log10 dilutions; 48 hours; read-out: overall panel-averaged GI50 concentration
Text: The following measures are used to express drug activity by giving the drug dose which reduces cell growth to a specified percentage of growth:
ED50 (P388) and GI50 (HTCL) are the drug doses needed to reduce the percent growth to 50%. There is no mathematical difference between ED50 and GI50, which are both calculated using the same formula. The only difference is historical usage.
Total Growth Inhibition ("TGI") is the drug dose needed to yield zero percent growth, i.e., just as many cells at the end of the experiment as were present in the beginning. Whether just as many cells were killed as were produced (steady state), or no growth occurred (total inhibition), cannot be distinguished. […]
Percent Growths are calculated for each dose. […]
as §3

[2] = tested on: non-small cell lung cancer cell line; test: NCI in vitro screen, non-small cell lung cancer cell line; type: cell-based, human; settings: one non-small cell lung cancer cell line
Experimental: as §1, §2, §3

[3] = tested on: MDA-MB-435 breast cancer cell line; test: NCI in vitro screen, MDA-MB-435; type: cell-based, human
Text: as §1
(§4) Lethal Concentration 50% ("LC50 ") is the drug concentration which reduces growth to -50%, i.e., removes half of the cells originally present at the beginning of the experiment.
Each drug is tested at five (5) doses: 100-10-1-0.1-0.01 μg/ml. Percent Growths are calculated for each dose. The two (or three) doses with growth values above, below, (or near to) 50% growth are used to calculate the ED50 /GI50 using a linear regression formula. The log of the dose is used during the regression computation. […]
as §3

five other cell lines = test: NCI in vitro screen, five other cell lines; type: cell-based, human; settings: five other cell lines (not named)
Experimental: as §4
Each drug is tested at five (5) doses: 100-10-1-0.1-0.01 μg/ml. Percent Growths are calculated for each dose. The two (or three) doses with growth values above, below, (or near to) 50% growth are used to calculate the ED50 /GI50 using a linear regression formula. The log of the dose is used during the regression computation. If no dose yields a growth value under 50%, the results are expressed as: ED50 >(highest dose). If no dose yields growth higher than 50% growth, then ED50 <(lowest dose). Similar calculations are performed for the TGI at 0% growth, and at -50% growth for the LC50.
as §3

breast cancer cell lines = test: NCI in vitro screen, breast cancer cell lines; type: cell-based, human; settings: two breast cancer cell lines
Experimental: as §1, §2, §3

CNS cancer cell lines = test: NCI in vitro screen, CNS cancer cell lines; type: cell-based, human
Experimental: as §1, §2, §3

Molecule	Total Growth Inhibition (TGI) (ovarian cancer cell line)	GI50 [1]	Total Growth Inhibition (TGI) [2]	LC50 [3]	LC50 (five other cell lines)	Total Growth Inhibition (TGI) (breast cancer cell lines)	Total Growth Inhibition (TGI) (CNS cancer cell lines; one CNS cancer cell line)	Total Growth Inhibition (TGI) (CNS cancer cell lines; two CNS cancer cell lines)
CC[C@H](C)[C@@H]1NC(=O)[C@H](Cc2ccccc2)NC(=O)[C@@H]2CCCN2C(=O)[C@H](Cc2ccccc2)NC(=O)[C@@H]2CCCN2C(=O)[C@H](CCC(N)=O)NC(=O)[C@@H]2CCCN2C(=O)[C@H](Cc2ccccc2)NC1=O [phakellistatin 11, cyclo-(Pro-Gln-Pro-Phe-Pro-Phe-Ile-Phe)] (cyclo(FIFPQPFP))	less than 10^-7 M per milliliter	0.132 µM	less than 10^-7 M per milliliter	less than 10^-5 M per milliliter	less than 10^-5 M per milliliter	less than 10^-7 M per milliliter	less than 10^-7 M per milliliter	–
cyclo-(Pro-Leu-Thr-Pro-Ile-Pro-Trp-Val) (PLTPIPWV; head-to-tail cyclic) [phakellistatin 10, cyclic octapeptide isolated from the marine sponge Phakellia sp]	–	0.79 µM	–	less than 10^-5 M per milliliter	–	less than 10^-6 M per milliliter	–	less than 10^-6 M per milliliter
